Source: the supplement of paper PMC5844555

Assays:
Assay in all cases: 3' UTR reporter interaction score (median-centred robust z-score of log2 firefly/Renilla activity); higher = less repression of the 3' UTR reporter
Conditions in all cases: HEK293T; 48 h
[1] = tested on: PHF6
In short: (§1)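 HEK293T cells (10,000/well, 96-well plates) were co-transfected using DharmaFECT Duo with 100 ng firefly luc2P reporter carrying the gene's 3' UTR, 20 ng Renilla pRL-TK control and 2.5 pmol miRNA mimic. Dual-luciferase activities were read 48 h post-transfection. The interaction score is the log-transformed firefly/Renilla ratio as a per-plate robust z-score (median, median absolute deviation), median-centred per miRNA and averaged over at least two independent screens; more negative indicates interaction.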

[2] = tested on: NOTCH1
In short: as §1

[3] = tested on: MYCN
In short: as §1

[4] = tested on: PHOX2B
In short: as §1

[5] = tested on: HRAS
In short: as §1

[6] = tested on: ZEB2
In short: as §1

[7] = tested on: FBXW7
In short: as §1

[8] = tested on: RB1
In short: as §1

[9] = tested on: MYC
In short: as §1

[10] = tested on: EZH2
In short: as §1

[11] = tested on: TP53
In short: as §1

[12] = tested on: MYB
In short: as §1

[13] = tested on: BRCA2
In short: as §1

[14] = tested on: MYT1L
In short: as §1

| Sequence | 3' UTR reporter interaction score [1] | 3' UTR reporter interaction score [2] | 3' UTR reporter interaction score [3] | 3' UTR reporter interaction score [4] | 3' UTR reporter interaction score [5] | 3' UTR reporter interaction score [6] | 3' UTR reporter interaction score [7] | 3' UTR reporter interaction score [8] | 3' UTR reporter interaction score [9] | 3' UTR reporter interaction score [10] | 3' UTR reporter interaction score [11] | 3' UTR reporter interaction score [12] | 3' UTR reporter interaction score [13] | 3' UTR reporter interaction score [14] |
| --- | --- | --- | --- | --- | --- | --- | --- | --- | --- | --- | --- | --- | --- | --- |
| AUCGUGCAUCCCUUUAGAGUGUU | 1.97 | -0.525 | 0.792 | -0.0114 | -0.945 | -2.08 | 0.0524 | 0.943 | -0.211 | 0.461 | -0.928 | 0.132 | 0.348 | 0.0982 |
| AUGCACCUGGGCAAGGAUUCUG | -1.61 | 0.738 | -0.703 | -3.43 | 0.134 | -2.03 | -4.97 | -0.483 | 1.46 | 2.23 | -0.0328 | 0.3 | 1.42 | 1.1 |
| UGUAGUGUUUCCUACUUUAUGGA | -0.93 | -0.00364 | 1.22 | 0.885 | 0.941 | -2.54 | -0.472 | -0.511 | 0.753 | 0.133 | -0.138 | 0.85 | -3.32 | 1.44 |
| AAGCUGCCAGUUGAAGAACUGU | -0.206 | 1.36 | -0.291 | 0.0996 | 0.475 | 0.607 | -0.354 | 0.935 | -0.252 | -0.11 | -0.365 | 0.23 | -0.407 | -1.31 |
| UAGGUAGUUUCAUGUUGUUGG | -0.281 | -0.0228 | -1.16 | 1.68 | -0.663 | 0.231 | 1.58 | 0.553 | -1.91 | -1.54 | 0.576 | -1.52 | 0.216 | 1.55 |
| UAGCACCAUUUGAAAUCAGUGUU | 0.425 | 0.166 | -3.52 | -1.1 | -0.0949 | 0.0122 | -3.34 | -0.25 | 0.295 | 0.729 | -0.394 | 0.253 | 0.947 | 0.287 |
| UAGGUUAUCCGUGUUGCCUUCG | 1.26 | 0.0096 | 0.616 | 0.827 | 0.327 | 0.258 | -0.104 | -0.0884 | -0.452 | 0.345 | -0.804 | 1.02 | -0.557 | -0.174 |
| GUCCCUCUCCAAAUGUGUCUUG | -1.08 | -0.392 | 1.77 | -0.224 | 0.01 | -3.03 | -1.89 | -0.267 | 1.7 | 0.871 | 0.415 | 1.83 | 0.364 | -0.216 |
| UGGAAUGUAAGGAAGUGUGUGG | 2.43 | -0.967 | -2.18 | 0.446 | 0.0317 | 2.54 | -0.356 | 1.33 | 0.26 | 0.341 | -1.12 | -0.696 | -0.366 | 0.351 |
| GAAGGCGCUUCCCUUUGGAGU | 0.395 | -0.115 | -0.406 | 2.09 | -1.8 | 1.47 | 0.348 | 0.389 | -1.08 | -1.48 | -0.237 | -0.216 | 0.864 | 0.212 |
| AAUCAUACAGGGACAUCCAGUU | -0.265 | -0.77 | -0.994 | 1.38 | 0.163 | -0.725 | 0.98 | -0.451 | 0.273 | 1.15 | -0.0235 | 0.0607 | -0.401 | 0.474 |
| CUUUCAGUCGGAUGUUUACAGC | -0.685 | 0.359 | 0 | -0.851 | 0.423 | -0.248 | -0.0926 | 0.295 | -0.326 | -0.714 | 0.358 | 0.713 | 0.0637 | -0.118 |
| UAAUACUGUCUGGUAAAACCGU | 0.422 | -1.39 | 0.575 | -0.137 | 0.264 | -6.85 | -1.04 | 0.612 | 0.8 | 0.716 | 0.0543 | -2.29 | -0.165 | 0.747 |
| CAUGCCUUGAGUGUAGGACCGU | 1.76 | -0.883 | -0.364 | -1.4 | -0.893 | -1.59 | 0.998 | 0.637 | -1.17 | 0.42 | 0.524 | 0.293 | 0.421 | -1.07 |
| ACUAGACUGAAGCUCCUUGAGG | -0.216 | -0.733 | 0.903 | -2.05 | 0.196 | -0.765 | -1.12 | 1.2 | 0.201 | 0.526 | 0.442 | 0.78 | 0.363 | 0.327 |
| CGAAUGUUGCUCGGUGAACCCCU | -1.07 | 1.32 | 0.119 | 1.32 | -0.194 | -0.941 | 0.304 | 0.281 | 0.217 | -0.254 | -0.241 | 0.287 | -0.821 | 0.642 |
| UUUAACAUGGGGGUACCUGCUG | 0.182 | -0.514 | 0.0587 | -1.08 | 0.621 | -0.448 | 0.198 | 0.395 | -0.0461 | 0.537 | -0.238 | -1.1 | 1.26 | -0.244 |
| AAAAGCUGGGUUGAGAGGGCGAA | 0.0922 | 0.666 | 0.121 | -1.64 | -0.583 | 1.15 | 0.0632 | 0.499 | 0.0971 | -2.65 | -0.479 | 1.19 | 0.138 | -0.165 |
| GCUGGGCAGGGCUUCUGAGCUCCUU | 0.53 | -0.244 | 0.117 | 1.06 | -0.298 | 0.0169 | -0.37 | 0.659 | -0.481 | -0.0238 | -0.0785 | 0.00877 | -0.0026 | -0.4 |
